Measured values published in paper PMC4839570, “Novel Anthra[1,2-c][1,2,5]Thiadiazole-6,11-Diones as Promising Anticancer Lead Compounds: Biological Evaluation, Characterization & Molecular Targets Determination” (PLoS ONE, 2016).
Like-named read-outs stand apart in the source and are kept apart here.

Columns and labels:
HCT-116 = assay: JFCR-39 cytotoxicity screen; assay type: cell-based
SF-539 = assay: NCI-60 cytotoxicity screen; assay type: cell-based
U251 = assay: NCI-60 cytotoxicity screen; assay type: cell-based
SF-268 = assay: JFCR-39 cytotoxicity screen; assay type: cell-based
NCI-H23 = assay: JFCR-39 cytotoxicity screen; assay type: cell-based
NCI-H522 = assay: JFCR-39 cytotoxicity screen; assay type: cell-based
PC-3 = assay: NCI-60 cytotoxicity screen; assay type: cell-based
TK-10 = assay: NCI-60 cytotoxicity screen; assay type: cell-based
DMS114 = assay: JFCR-39 cytotoxicity screen; assay type: cell-based
RPMI-8226 = assay: NCI-60 cytotoxicity screen; assay type: cell-based
OVCAR-8 [1] = assay: JFCR-39 cytotoxicity screen; assay type: cell-based
OVCAR-3 = assay: cells; conditions: Homo sapiens, OVCAR-3, read-out: mean log10 of the GI50 values (converted)
KM-12 = assay: JFCR-39 cytotoxicity screen; assay type: cell-based
MKN74 = assay: JFCR-39 cytotoxicity screen; assay type: cell-based
EKVX = assay: NCI-60 cytotoxicity screen; assay type: cell-based
HBC-5 = assay: JFCR-39 cytotoxicity screen; assay type: cell-based
OVCAR-5 [2] = assay: JFCR-39 cytotoxicity screen; assay type: cell-based
MKN28 = assay: JFCR-39 cytotoxicity screen; assay type: cell-based
HCT-15 = assay: JFCR-39 cytotoxicity screen; assay type: cell-based
[3] = test system: NF-κB p65 subunit in OVCAR-3 cells; assay: Western blotting of nuclear and cytosolic fractions; assay type: cell-based, human; conditions: OVCAR-3 nuclear fraction
Description: Treated cells were fractionated into nuclear and cytosolic fractions using the Nuclear/Cytosol fractionation kit (BioVision), separated by electrophoresis in SDS-PAGE gels and transferred to Amersham Hybond-P PVDF Membranes. Membranes were probed with either anti-NF-κB p65 rabbit monoclonal primary antibody [E379] Abcam # ab32536, anti-TATA binding protein (TBP) mouse antibody (1TBP18), or anti-beta Tubulin rabbit antibody [NB600-936]. After washing, membranes were incubated with either goat anti-rabbit IgG H&L (HRP) (ab6721), or rabbit anti-mouse IgG H&L (HRP) (ab6728) secondary antibodies. Membranes were developed using the Immobilon Western chemiluminescent HRP substrate kit. Protein bands were normalized to either the beta Tubulin or TBP bands and quantified using ImageJ software.

M14 = assay: NCI-60 cytotoxicity screen; assay type: cell-based
RXF-631L = assay: JFCR-39 cytotoxicity screen; assay type: cell-based
HL-60(TB) = assay: NCI-60 cytotoxicity screen; assay type: cell-based
MCF-7 = assay: JFCR-39 cytotoxicity screen; assay type: cell-based
SN12C = assay: NCI-60 cytotoxicity screen; assay type: cell-based
OVCAR-5 [4] = assay: NCI-60 cytotoxicity screen; assay type: cell-based
MDA-MB-231 = assay: JFCR-39 cytotoxicity screen; assay type: cell-based
SR = assay: NCI-60 cytotoxicity screen; assay type: cell-based; conditions: Homo sapiens, Fig 7, read-out: mean log10 of the GI50 values (converted)
DU-145 = assay: JFCR-39 cytotoxicity screen; assay type: cell-based
OVCAR-8 [5] = assay: NCI-60 cytotoxicity screen; assay type: cell-based
[6] = Homo sapiens, read-out: LC50 (the source's name)
[7] = Homo sapiens, Fig 7, read-out: mean log10 of the GI50 values (converted)
[8] = Homo sapiens, five-dose, read-out: GI50
[9] = Homo sapiens, five-dose, read-out: LC50 (the source's name)

O=C1c2ccccc2C(=O)c2c1ccc1nsnc21 [NSC745885, anthra[1,2-c][1,2,5]thiadiazole-6,11-dione]
TGI (HCT-116): 3.0 µM | GI50 (HCT-116; Homo sapiens): 1.6 µM | CC50 (HCT-116; [6]): 5.8 µM | GI50 (SF-539; [7]): 1.48 µM | GI50 (SF-539; [8]): 1.46 µM | CC50 (SF-539; [9]): 5.91 µM | TGI (SF-539; five-dose): 2.94 µM | GI50 (U251; Homo sapiens, U-251, Fig 7, read-out: mean log10 of the GI50 values (converted)): 2.51 µM | GI50 (U251; Homo sapiens, U-251, five-dose, read-out: GI50): 1.61 µM | CC50 (U251; Homo sapiens, U-251, five-dose, read-out: LC50 (the source's name)): 5.44 µM | TGI (U251; five-dose): 2.96 µM | TGI (SF-268): 3.8 µM | GI50 (SF-268; Homo sapiens): 2 µM | CC50 (SF-268; [6]): 7.1 µM | TGI (NCI-H23): 2.9 µM | GI50 (NCI-H23; Homo sapiens): 1.1 µM | CC50 (NCI-H23; [6]): 8 µM | TGI (NCI-H522): 3.0 µM | GI50 (NCI-H522; Homo sapiens): 1.3 µM | CC50 (NCI-H522; [6]): 6.7 µM | GI50 (PC-3; [7]): 3.16 µM | GI50 (PC-3; [8]): 3.23 µM | CC50 (PC-3; [9]): > 100 µM | TGI (PC-3; five-dose): >100 µM | GI50 (TK-10; [7]): 10 µM | GI50 (TK-10; [8]): 2.85 µM | CC50 (TK-10; [9]): 50.4 µM | TGI (TK-10; five-dose): 10.9 µM | TGI (DMS114): 1.8 µM | GI50 (DMS114; Homo sapiens, DMS-114): 0.5 µM | CC50 (DMS114; Homo sapiens, DMS-114, read-out: LC50 (the source's name)): 5 µM | GI50 (RPMI-8226; [7]): 1.35 µM | GI50 (RPMI-8226; [8]): 1.18 µM | CC50 (RPMI-8226; [9]): > 100 µM | TGI (RPMI-8226; five-dose): 3.46 µM | TGI (OVCAR-8 [1]): 4.0 µM | GI50 (OVCAR-8 [1]; Homo sapiens): 1.4 µM | CC50 (OVCAR-8 [1]; [6]): 18 µM | GI50 (OVCAR-3): 1.35 µM | TGI (KM-12): 5.4 µM | GI50 (KM-12; Homo sapiens, KM12): 2.3 µM | CC50 (KM-12; Homo sapiens, KM12, read-out: LC50 (the source's name)): 25 µM | TGI (MKN74): 4.7 µM | GI50 (MKN74; Homo sapiens, MKN-74): 1.8 µM | CC50 (MKN74; Homo sapiens, MKN-74, read-out: LC50 (the source's name)): > 100 µM | GI50 (EKVX; [7]): 1.86 µM | GI50 (EKVX; [8]): 1.55 µM | CC50 (EKVX; [9]): 7.66 µM | TGI (EKVX; five-dose): 3.45 µM | TGI (HBC-5): 3.5 µM | GI50 (HBC-5; Homo sapiens, HBC5): 1.9 µM | CC50 (HBC-5; Homo sapiens, HBC5, read-out: LC50 (the source's name)): 6.2 µM | TGI (OVCAR-5 [2]): 3.4 µM | GI50 (OVCAR-5 [2]; Homo sapiens): 1.9 µM | CC50 (OVCAR-5 [2]; [6]): 6 µM | TGI (MKN28): 4.4 µM | GI50 (MKN28; Homo sapiens, MKN-28): 1.8 µM | CC50 (MKN28; Homo sapiens, MKN-28, read-out: LC50 (the source's name)): 13 µM | TGI (HCT-15): 3.4 µM | GI50 (HCT-15; Homo sapiens): 1.8 µM | CC50 (HCT-15; [6]): 6.3 µM | dose of almost complete inhibition of nuclear NF-κB p65 expression [3]: 2.4 µM | GI50 (M14; [7]): 2.29 µM | GI50 (M14; [8]): 2.15 µM | CC50 (M14; [9]): > 100 µM | TGI (M14; five-dose): 4.85 µM | TGI (RXF-631L): 4.9 µM | GI50 (RXF-631L; Homo sapiens): 2.3 µM | CC50 (RXF-631L; [6]): 12 µM | GI50 (HL-60(TB); [7]): 0.589 µM | GI50 (HL-60(TB); [8]): 0.16 µM | CC50 (HL-60(TB); [9]): 0.99 µM | TGI (HL-60(TB); five-dose): 0.39 µM | TGI (MCF-7): 3.9 µM | GI50 (MCF-7; Homo sapiens, MCF7): 1.9 µM | CC50 (MCF-7; Homo sapiens, MCF7, read-out: LC50 (the source's name)): 8.1 µM | GI50 (SN12C; [7]): 1.78 µM | GI50 (SN12C; [8]): 1.33 µM | CC50 (SN12C; [9]): 7.56 µM | TGI (SN12C; five-dose): 3.17 µM | GI50 (OVCAR-5 [4]; [7]): 2.04 µM | GI50 (OVCAR-5 [4]; [8]): 1.91 µM | CC50 (OVCAR-5 [4]; [9]): 8.84 µM | TGI (OVCAR-5 [4]; five-dose): 4.11 µM | TGI (MDA-MB-231): 5.5 µM | GI50 (MDA-MB-231; Homo sapiens): 1.4 µM | CC50 (MDA-MB-231; [6]): 63 µM | GI50 (SR): 6.92 µM | TGI (DU-145): 3.5 µM | GI50 (DU-145; Homo sapiens): 2 µM | CC50 (DU-145; [6]): 6.1 µM | GI50 (OVCAR-8 [5]; [7]): 1.2 µM | GI50 (OVCAR-8 [5]; [8]): 1.66 µM | CC50 (OVCAR-8 [5]; [9]): 59.8 µM | TGI (OVCAR-8 [5]; five-dose): 4.68 µM
